Experimental data from patent publication US8802597B2, “Herbicidal pyrimidines” (E I du Pont de Nemours and Company, priority 2003, dated 2014).

Tests used:
Experiment in all cases: Test C pre/postemergence
Type in all cases: in vivo
[1] = test system: Surinam grass (Brachiaria decumbens); settings: Postemergence; for Surinam Grass plant response rating: 125 g ai/ha, scale 0 to 100 (0 no effect, 100 complete control)
In short: (§1)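 Rating scale 0–100: 0 means no effect, 100 complete control; taken visually 12 to 14 days post-treatment versus controls. Pre- and postemergence greenhouse applications, postemergence at 1- to 4-leaf stage, non-phytotoxic solvent with surfactant as carrier.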

[2] = test system: bermudagrass (Cynodon dactylon); settings: Postemergence; for Bermudagrass plant response rating: scale 0 to 100 (0 no effect, 100 complete control)
In short: as §1

[3] = test system: common ragweed (Ambrosia elatior); settings: Postemergence; for Ragweed plant response rating: 125 g ai/ha, scale 0 to 100 (0 no effect, 100 complete control)
In short: as §1

[4] = test system: giant foxtail (Setaria faberii); settings: Postemergence; for Foxtail, Giant plant response rating: 125 g ai/ha, scale 0 to 100 (0 no effect, 100 complete control)
In short: as §1

[5] = test system: goosegrass (Eleusine indica); settings: Postemergence; for Goosegrass plant response rating: 125 g ai/ha, scale 0 to 100 (0 no effect, 100 complete control)
In short: as §1

[6] = test system: lambsquarters (Chenopodium album); settings: Postemergence; for Lambsquarters plant response rating: 125 g ai/ha, scale 0 to 100 (0 no effect, 100 complete control)
In short: as §1

[7] = test system: morningglory (Ipomoea coccinea); settings: Postemergence; for Morningglory plant response rating: 125 g ai/ha, scale 0 to 100 (0 no effect, 100 complete control)
In short: as §1

soybean (Glycine max) = settings: Postemergence; for Soybean plant response rating: 125 g ai/ha, scale 0 to 100 (0 no effect, 100 complete control)
In short: as §1

[8] = test system: velvetleaf (Abutilon theophrasti); settings: Postemergence; for Velvetleaf plant response rating: 125 g ai/ha, scale 0 to 100 (0 no effect, 100 complete control)
In short: as §1

[9] = test system: woolly cupgrass (Eriochloa villosa); settings: Postemergence; for Cupgrass, Woolly plant response rating: 125 g ai/ha, scale 0 to 100 (0 no effect, 100 complete control)
In short: as §1

[10] = test system: yellow nutsedge (Cyperus esculentus); settings: Postemergence; for Nutsedge, Yellow plant response rating: 125 g ai/ha, scale 0 to 100 (0 no effect, 100 complete control)
In short: as §1

COC(=O)c1nc(-c2ccc(Cl)cc2)nc(N)c1Br [Compound 83]
Plant response rating (scale of 0 to 100), Surinam Grass ([1]; 16 g ai/ha): 20 | Plant response rating (scale of 0 to 100), Surinam Grass ([1]; 31 g ai/ha): 30 | Plant response rating (scale of 0 to 100), Surinam Grass ([1]; 62 g ai/ha): 45 | Surinam Grass plant response rating [1]: 65 | Plant response rating (scale of 0 to 100), Bermudagrass ([2]; 16 g ai/ha): 0 | Plant response rating (scale of 0 to 100), Bermudagrass ([2]; 31 g ai/ha): 5 | Bermudagrass plant response rating ([2]; 62 g ai/ha): 20 | Bermudagrass plant response rating ([2]; 125 g ai/ha): 55 | Plant response rating (scale of 0 to 100), Ragweed ([3]; 16 g ai/ha): 65 | Plant response rating (scale of 0 to 100), Ragweed ([3]; 31 g ai/ha): 70 | Plant response rating (scale of 0 to 100), Ragweed ([3]; 62 g ai/ha): 75 | Ragweed plant response rating [3]: 95 | Plant response rating (scale of 0 to 100), Foxtail, Giant ([4]; 16 g ai/ha): 0 | Plant response rating (scale of 0 to 100), Foxtail, Giant ([4]; 31 g ai/ha): 0 | Plant response rating (scale of 0 to 100), Foxtail, Giant ([4]; 62 g ai/ha): 20 | Foxtail, Giant plant response rating [4]: 40 | Plant response rating (scale of 0 to 100), Goosegrass ([5]; 16 g ai/ha): 10 | Plant response rating (scale of 0 to 100), Goosegrass ([5]; 31 g ai/ha): 10 | Plant response rating (scale of 0 to 100), Goosegrass ([5]; 62 g ai/ha): 30 | Goosegrass plant response rating [5]: 45 | Plant response rating (scale of 0 to 100), Lambsquarters ([6]; 16 g ai/ha): 90 | Plant response rating (scale of 0 to 100), Lambsquarters ([6]; 31 g ai/ha): 95 | Plant response rating (scale of 0 to 100), Lambsquarters ([6]; 62 g ai/ha): 95 | Lambsquarters plant response rating [6]: 100 | Plant response rating (scale of 0 to 100), Morningglory ([7]; 16 g ai/ha): 70 | Plant response rating (scale of 0 to 100), Morningglory ([7]; 31 g ai/ha): 85 | Plant response rating (scale of 0 to 100), Morningglory ([7]; 62 g ai/ha): 90 | Morningglory plant response rating [7]: 90 | Plant response rating (scale of 0 to 100), Soybean (soybean (Glycine max); 16 g ai/ha): 85 | Plant response rating (scale of 0 to 100), Soybean (soybean (Glycine max); 31 g ai/ha): 90 | Plant response rating (scale of 0 to 100), Soybean (soybean (Glycine max); 62 g ai/ha): 100 | Soybean plant response rating (soybean (Glycine max)): 100 | Plant response rating (scale of 0 to 100), Velvetleaf ([8]; 16 g ai/ha): 70 | Plant response rating (scale of 0 to 100), Velvetleaf ([8]; 31 g ai/ha): 85 | Plant response rating (scale of 0 to 100), Velvetleaf ([8]; 62 g ai/ha): 85 | Velvetleaf plant response rating [8]: 100 | Plant response rating (scale of 0 to 100), Cupgrass, Woolly ([9]; 16 g ai/ha): 15 | Plant response rating (scale of 0 to 100), Cupgrass, Woolly ([9]; 31 g ai/ha): 15 | Plant response rating (scale of 0 to 100), Cupgrass, Woolly ([9]; 62 g ai/ha): 45 | Cupgrass, Woolly plant response rating [9]: 60 | Plant response rating (scale of 0 to 100), Nutsedge, Yellow ([10]; 16 g ai/ha): 60 | Plant response rating (scale of 0 to 100), Nutsedge, Yellow ([10]; 31 g ai/ha): 60 | Plant response rating (scale of 0 to 100), Nutsedge, Yellow ([10]; 62 g ai/ha): 60 | Nutsedge, Yellow plant response rating [10]: 75

Nc1nc(-c2ccc(Cl)cc2)nc(C(=O)O)c1Br [Compound 88]
Plant response rating (scale of 0 to 100), Surinam Grass ([1]; 31 g ai/ha): 45 | Plant response rating (scale of 0 to 100), Surinam Grass ([1]; 62 g ai/ha): 60 | Surinam Grass plant response rating [1]: 80 | Plant response rating, Surinam Grass ([1]; 250 g ai/ha, scale 0 to 100): 85 | Plant response rating (scale of 0 to 100), Bermudagrass ([2]; 31 g ai/ha): 50 | Bermudagrass plant response rating ([2]; 62 g ai/ha): 70 | Bermudagrass plant response rating ([2]; 125 g ai/ha): 70 | Plant response rating, Bermudagrass ([2]; 250 g ai/ha, scale 0 to 100): 80 | Plant response rating (scale of 0 to 100), Ragweed ([3]; 31 g ai/ha): 90 | Plant response rating (scale of 0 to 100), Ragweed ([3]; 62 g ai/ha): 100 | Ragweed plant response rating [3]: 100 | Plant response rating, Ragweed ([3]; 250 g ai/ha, scale 0 to 100): 100 | Plant response rating (scale of 0 to 100), Foxtail, Giant ([4]; 31 g ai/ha): 55 | Plant response rating (scale of 0 to 100), Foxtail, Giant ([4]; 62 g ai/ha): 75 | Foxtail, Giant plant response rating [4]: 80 | Plant response rating, Foxtail, Giant ([4]; 250 g ai/ha, scale 0 to 100): 85 | Plant response rating (scale of 0 to 100), Goosegrass ([5]; 31 g ai/ha): 50 | Plant response rating (scale of 0 to 100), Goosegrass ([5]; 62 g ai/ha): 75 | Goosegrass plant response rating [5]: 75 | Plant response rating, Goosegrass ([5]; 250 g ai/ha, scale 0 to 100): 80 | Plant response rating (scale of 0 to 100), Lambsquarters ([6]; 31 g ai/ha): 90 | Plant response rating (scale of 0 to 100), Lambsquarters ([6]; 62 g ai/ha): 95 | Lambsquarters plant response rating [6]: 95 | Plant response rating, Lambsquarters ([6]; 250 g ai/ha, scale 0 to 100): 100 | Plant response rating (scale of 0 to 100), Morningglory ([7]; 31 g ai/ha): 60 | Morningglory plant response rating [7]: 85 | Plant response rating, Morningglory ([7]; 250 g ai/ha, scale 0 to 100): 85 | Plant response rating (scale of 0 to 100), Soybean (soybean (Glycine max); 31 g ai/ha): 100 | Plant response rating (scale of 0 to 100), Soybean (soybean (Glycine max); 62 g ai/ha): 100 | Soybean plant response rating (soybean (Glycine max)): 100 | Plant response rating, Soybean (soybean (Glycine max); 250 g ai/ha, scale 0 to 100): 100 | Plant response rating (scale of 0 to 100), Velvetleaf ([8]; 31 g ai/ha): 85 | Plant response rating (scale of 0 to 100), Velvetleaf ([8]; 62 g ai/ha): 90 | Velvetleaf plant response rating [8]: 95 | Plant response rating, Velvetleaf ([8]; 250 g ai/ha, scale 0 to 100): 95 | Plant response rating (scale of 0 to 100), Cupgrass, Woolly ([9]; 31 g ai/ha): 70 | Plant response rating (scale of 0 to 100), Cupgrass, Woolly ([9]; 62 g ai/ha): 75 | Cupgrass, Woolly plant response rating [9]: 85 | Plant response rating, Cupgrass, Woolly ([9]; 250 g ai/ha, scale 0 to 100): 85 | Plant response rating (scale of 0 to 100), Nutsedge, Yellow ([10]; 31 g ai/ha): 40 | Plant response rating (scale of 0 to 100), Nutsedge, Yellow ([10]; 62 g ai/ha): 45 | Nutsedge, Yellow plant response rating [10]: 55 | Plant response rating, Nutsedge, Yellow ([10]; 250 g ai/ha, scale 0 to 100): 75
